Laboratory results published in patent US7723295B2, “Peptides and compounds that bind to a receptor” (Ortho-McNeil Pharmaceutical, Inc., priority 2003, dated 2010).

Key:
human TPO receptor = target: T1, human TPO receptor (Homo sapiens, UniProt P40238); assay: relative luminescent units assay, murine cells expressing human TPO receptor and fos-promoter luciferase reporter; type: cell-based; details: FIG. 1; three batches of TPO Compound No. 1 vs one batch of prior art peptide compound
T1 construct: expressed in transfected cells
T1 sequence (P40238 26-635): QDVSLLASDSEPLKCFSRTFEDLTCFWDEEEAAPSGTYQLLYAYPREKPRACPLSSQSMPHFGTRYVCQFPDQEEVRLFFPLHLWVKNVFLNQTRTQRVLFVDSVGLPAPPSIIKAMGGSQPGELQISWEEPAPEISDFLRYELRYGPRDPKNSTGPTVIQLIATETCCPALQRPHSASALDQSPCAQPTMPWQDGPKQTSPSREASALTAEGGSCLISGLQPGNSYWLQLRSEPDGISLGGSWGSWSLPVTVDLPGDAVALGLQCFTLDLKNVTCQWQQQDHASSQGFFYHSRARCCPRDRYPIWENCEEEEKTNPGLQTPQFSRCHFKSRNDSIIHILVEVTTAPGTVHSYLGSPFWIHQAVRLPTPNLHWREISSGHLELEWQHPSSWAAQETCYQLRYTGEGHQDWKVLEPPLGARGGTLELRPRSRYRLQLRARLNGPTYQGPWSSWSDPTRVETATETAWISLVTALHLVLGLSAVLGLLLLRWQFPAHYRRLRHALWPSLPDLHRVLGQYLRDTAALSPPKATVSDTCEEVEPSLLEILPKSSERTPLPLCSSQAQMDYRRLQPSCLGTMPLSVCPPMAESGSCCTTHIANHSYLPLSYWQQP
From the text: The assay employs murine cells engineered to stably express the human TPO receptor and a luciferase reporter construct driven by the fos promoter.

platelet counts = assay: Phase I pharmacodynamics, elevation in platelet counts; type: in vivo, human; details: for n (>1.5×), subjects with platelet increase / n (>2×), subjects with platelet increase / n (>3×), subjects with platelet increase / n (>4×), subjects with platelet increase: N=6

With “(H-IEGPTLRQ(2-Nal)LAAR(Sar))2K-NH2 [TPO Compound No. 1]” the “activity (relative luminescent units), compared between compounds” value (human TPO receptor) was “similar”, the “Pltmax, first value (mean peak platelet count)” value (shortened to “Pltmax, first value”) (platelet counts; 0.375 μg/kg single i.v.) was 315 10^9/L and the “Pltmax, range in brackets” value (platelet counts; 0.375 μg/kg single i.v.) was “(214-482) 10^9/L”. For the same substance, the “Pltmax, second value after the slash (footnote not given)” value (platelet counts; 0.375 μg/kg single i.v.) was 309 10^9/L, the “Pltmax/Plt0, first value (mean)” value (platelet counts; 0.375 μg/kg single i.v.) was 1.42/1.42 and the “Pltmax/Plt0, range in brackets” value (platelet counts; 0.375 μg/kg single i.v.) was “(1.08-1.81)”. The “Pltmax/Plt0, second value after the slash (footnote not given)” value (shortened to “Pltmax/Plt0 … (footnote not given)”) (platelet counts; 0.375 μg/kg single i.v.) was 1.42/1.42, the “n (>1.5×), subjects with platelet increase” value (platelet counts; 0.375 μg/kg single i.v.) was 3 and the “n (>2×), subjects with platelet increase” value (platelet counts; 0.375 μg/kg single i.v.) was 0. For the same substance, the “n (>3×), subjects with platelet increase” value (platelet counts; 0.375 μg/kg single i.v.) was 0, the “n (>4×), subjects with platelet increase” value (platelet counts; 0.375 μg/kg single i.v.) was 0 and the “Pltmax, first value” value (platelet counts; 0.75 μg/kg single i.v.) was 347 10^9/L. For the same substance, the “Pltmax, range in brackets” value (platelet counts; 0.75 μg/kg single i.v.) was “(232-495) 10^9/L”, the “Pltmax, second value after the slash (footnote not given)” value (platelet counts; 0.75 μg/kg single i.v.) was 335 10^9/L and the “Pltmax/Plt0, first value (mean)” value (platelet counts; 0.75 μg/kg single i.v.) was 1.63/1.63. The “Pltmax/Plt0, range in brackets” value (platelet counts; 0.75 μg/kg single i.v.) was “(1.15-2.12)”, the “Pltmax/Plt0 … (footnote not given)” value (platelet counts; 0.75 μg/kg single i.v.) was 1.63/1.63 and the “n (>1.5×), subjects with platelet increase” value (platelet counts; 0.75 μg/kg single i.v.) was 3. For the same substance, the “n (>2×), subjects with platelet increase” value (platelet counts; 0.75 μg/kg single i.v.) was 1, the “n (>3×), subjects with platelet increase” value (platelet counts; 0.75 μg/kg single i.v.) was 0 and the “n (>4×), subjects with platelet increase” value (platelet counts; 0.75 μg/kg single i.v.) was 0. The “Pltmax, first value” value (platelet counts; 1.5 μg/kg single i.v.) was 430 10^9/L, the “Pltmax, range in brackets” value (platelet counts; 1.5 μg/kg single i.v.) was “(238-597) 10^9/L” and the “Pltmax, second value after the slash (footnote not given)” value (platelet counts; 1.5 μg/kg single i.v.) was 458 10^9/L. For the same substance, the “Pltmax/Plt0, first value (mean)” value (platelet counts; 1.5 μg/kg single i.v.) was 1.91, the “Pltmax/Plt0, range in brackets” value (platelet counts; 1.5 μg/kg single i.v.) was “(1.01-2.59)” and the “Pltmax/Plt0 … (footnote not given)” value (platelet counts; 1.5 μg/kg single i.v.) was 2.13. For the same substance, the “n (>1.5×), subjects with platelet increase” value (platelet counts; 1.5 μg/kg single i.v.) was 4, the “n (>2×), subjects with platelet increase” value (platelet counts; 1.5 μg/kg single i.v.) was 3 and the “n (>3×), subjects with platelet increase” value (platelet counts; 1.5 μg/kg single i.v.) was 0. For the same substance, the “n (>4×), subjects with platelet increase” value (platelet counts; 1.5 μg/kg single i.v.) was 0, the “Pltmax, first value” value (platelet counts; 2.25 μg/kg single i.v.) was 454 10^9/L and the “Pltmax, range in brackets” value (platelet counts; 2.25 μg/kg single i.v.) was “(254-576) 10^9/L”. The “Pltmax, second value after the slash (footnote not given)” value (platelet counts; 2.25 μg/kg single i.v.) was 500 10^9/L, the “Pltmax/Plt0, first value (mean)” value (platelet counts; 2.25 μg/kg single i.v.) was 2.15 and the “Pltmax/Plt0, range in brackets” value (platelet counts; 2.25 μg/kg single i.v.) was “(1.28-2.98)”. The “Pltmax/Plt0 … (footnote not given)” value (platelet counts; 2.25 μg/kg single i.v.) was 2.33, the “n (>1.5×), subjects with platelet increase” value (platelet counts; 2.25 μg/kg single i.v.) was 4 and the “n (>2×), subjects with platelet increase” value (platelet counts; 2.25 μg/kg single i.v.) was 4. The “n (>3×), subjects with platelet increase” value (platelet counts; 2.25 μg/kg single i.v.) was 0, the “n (>4×), subjects with platelet increase” value (platelet counts; 2.25 μg/kg single i.v.) was 0 and the “Pltmax, first value” value (platelet counts; 3.0 μg/kg single i.v.) was 685 10^9/L. The “Pltmax, range in brackets” value (platelet counts; 3.0 μg/kg single i.v.) was “(188-979) 10^9/L”, the “Pltmax, second value after the slash (footnote not given)” value (platelet counts; 3.0 μg/kg single i.v.) was 750 10^9/L and the “Pltmax/Plt0, first value (mean)” value (platelet counts; 3.0 μg/kg single i.v.) was 3.21. For the same substance, the “Pltmax/Plt0, range in brackets” value (platelet counts; 3.0 μg/kg single i.v.) was “(1.25-4.52)”, the “Pltmax/Plt0 … (footnote not given)” value (platelet counts; 3.0 μg/kg single i.v.) was 3.50 and the “n (>1.5×), subjects with platelet increase” value (platelet counts; 3.0 μg/kg single i.v.) was 5. The “n (>2×), subjects with platelet increase” value (platelet counts; 3.0 μg/kg single i.v.) was 5, the “n (>3×), subjects with platelet increase” value (platelet counts; 3.0 μg/kg single i.v.) was 4 and the “n (>4×), subjects with platelet increase” value (platelet counts; 3.0 μg/kg single i.v.) was 1.
